One data set deals with Ileum. The data set can be described thus: Inhibition of acetylcholine-induced contraction in guinea pig ileum. The class given is functional, tissue-based. The conditions noted are these: Cavia porcellus.
Data set [1] has as its system Jejunum. The experiment in a line: Inhibition of acetylcholine-induced contraction in Sprague-Dawley rat jejunum pretreated for 3 mins before acetylcholine challenge. The class given is functional, tissue-based.
The test system of data set [2] is Jejunum. The data set can be described thus: Inhibition of acetylcholine-induced contraction in Sprague-Dawley rat jejunum at 0.6 pM pretreated for 3 mins before acetylcholine challenge. Type of data set: functional.
Data set [3] relates to Jejunum. The data set can be described thus: Inhibition of acetylcholine-induced contraction in Sprague-Dawley rat jejunum at 1.2 pM pretreated for 3 mins before acetylcholine challenge. The class given is functional.
Data set [4] has as its system Jejunum. The experiment in a line: Inhibition of acetylcholine-induced contraction in Sprague-Dawley rat jejunum at 6.0 pM pretreated for 3 mins before acetylcholine challenge. The class given is functional.
For the next data set, the system named is Ephydatia fluviatilis. The experiment in a line: Inhibition of reaggregation of cells in Ephydatia fluviatilis. Type of data set: functional.
For another data set, the system named is Poecilia reticulata. The data set can be described thus: Toxicity against Lebistes reticulatus at 0.2 mg/l. Type of data set: organism-based. To be noted: in vivo.
The test system of data set [5] is Jejunum. The experiment in a line: Inhibition of Sprague-Dawley rat jejunum contraction at 0.6 to 6.0 pM. Type of data set: functional, tissue-based.
Data set [6] in a line: Cytotoxicity against human HCT16 cells. Type of data set: functional, cell-based.
The next data set addresses L-type calcium channel (Mus musculus, UniProt Q01815+Q02789+Q99246+Q9JIS7). The data set can be described thus: Antagonist activity at voltage-dependent L-type calcium channel in mouse neurobalstoma-rat glioma NG 108-15 hybrid cells assessed as inhibition of KCl-induced increase in intracellular calcium level pretreated for 3 mins before KCl challenge. Type of data set: functional, cell-based.

This passage reports Activity, inhibition and IC50 results from ChEMBL document CHEMBL1148176, “Polycyclic guanidine alkaloids from the marine sponge Crambe crambe and Ca++ channel blocker activity of crambescidin 816” (J Nat Prod, 1993).

Calls of active or inactive are those of the source. The rule behind the calls is not given here.

As to `CC[C@H]1C=CCC[C@]2(C[C@H]3CC[C@]4(O)[C@H](C(=O)OCCCCCCCCCCCCCCCC(=O)N(CCCN)C[C@@H](O)CCN)[C@@]5(CCC[C@@H](C)O5)NC(=[N+]34)N2)O1.[Cl-]` [CRAMBESCIDIN 816 HYDROCHLORIDE], the outcome with Ileum was Active. The Activity result in the data set with Jejunum [1] is “Dose-dependent effect”; in the data set on Ephydatia fluviatilis, 1.2 mM; in the data set with Poecilia reticulata, “Toxic”; on L-type calcium channel (mouse), “Dose-dependent effect”. For the same molecule, the inhibition at 600 fM with Jejunum [2] amounted to 18%. For the same molecule, in the data set on Jejunum [3], the inhibition at 1.2 pM came out at 25%. Besides, the inhibition at 6 pM in the data set on Jejunum [4] was 30%. The outcome with Jejunum [5] was inactive. Moreover, the IC50 came to 0.24 µg/mL in data set [6] and 1.5 ×10⁻⁴ microM on L-type calcium channel.

For `CCCCCCCCCCCC1N=C(N)N2CCCC2=C1C(=O)OCCCCNC(=N)N.Cl` (stereo not drawn) [CRAMBINE A], the figures for the Activity in the data set with Ephydatia fluviatilis and with Poecilia reticulata were 2.3 mM and “Toxic”, respectively.

For the molecule `CCCCCCCCCCC[C@@H]1N=C(N)N[C@]2(CCCO2)[C@@H]1C(=O)OCCCCCNC(=N)N.Cl` [CRAMBINE B], the Activity with Ephydatia fluviatilis was 2 mM; in the data set with Poecilia reticulata, “Toxic”.

Take `CCCCCCCCCCCC1N=C(N)NC(CCCO)=C1C(=O)OCCCCCNC(=N)N.Cl` (stereo not drawn) [CRAMBINE C1]: the values for the Activity in the data set on Ephydatia fluviatilis and in the data set with Poecilia reticulata were 2.1 ×10⁻² M and “Toxic”, respectively.

With `COC(=O)C1=C(C)NC(C)=C(C(=O)OC)C1c1ccccc1[N+](=O)[O-]` [NIFEDIPINE], on L-type calcium channel, the IC50 amounted to 1.2 µM.
